From ChEMBL document CHEMBL5030558, “Optimization and Evaluation of Novel Antifungal Agents for the Treatment of Fungal Infection” (J Med Chem, 2021)
Activity calls are given as the source filed them. The rule behind the calls is not given here.

Key:
[1] = Cmax in dog at 1 mg/kg, iv; assay type: ADME, organism-based, Canis lupus familiaris; design: route intravenous, dose 1 mg/kg; details: in vivo
Nakaseomyces glabratus [2] = assay: Induction of drug resistant in Candida glabrata BG2 assessed as increase in compound IC50 at 8 to 12 times MIC; assay type: functional, organism-based
Aspergillus fumigatus [3] = assay: Antifungal activity against Aspergillus fumigatus AF293 assessed as reduction in fungal growth incubated for 48 hrs by CLSI based broth microdilution method; assay type: functional
[4] = Cmax in cynomolgus monkey at 10 mg/kg, iv; assay type: ADME, organism-based, Macaca fascicularis; design: route intravenous, dose 10 mg/kg; details: in vivo
[5] = Stability in rat liver microsomes assessed as parent compound remaining after 30 mins; assay type: ADME, Microsome; details: liver microsomes, read-out: Stability
[6] = AUC(0 to t) in cynomolgus monkey at 10 mg/kg, iv; assay type: ADME, organism-based, Macaca fascicularis; design: dose 10 mg/kg; details: in vivo
[7] = Stability in dog hepatocytes assessed as parent compound remaining incubated for 60 mins; assay type: ADME, cell-based, Canis lupus familiaris, Hepatocyte; details: read-out: Stability
Candida albicans [8] = assay: In vivo antifungal activity against Candida albicans 90028 infected in BALB/c mouse assessed as reduction in size of inflammation measured upto 48 hrs post infection; assay type: functional, organism-based; details: time hrs <=48
Nakaseomyces glabratus [9] = assay: Additive antifungal activity against Candida glabrata BG2 assessed as assessed as FICI in presence of CSP after 48 hrs by checker board assay; assay type: functional, organism-based
Cryptococcus neoformans [10] = assay: Fungicidal activity against Cryptococcus neoformans H99 at 2 times of MIC after 12 hrs by time-kill kinetics assay; assay type: functional, organism-based
Cytochrome P450 2D6 = Cytochrome P450 2D6 (Homo sapiens, UniProt P10635); assay: Inhibition of CYP2D6 (unknown origin) relative to control; assay type: ADME
Cryptococcus neoformans [11] = assay: Additive antifungal activity against Cryptococcus neoformans H99 assessed as FICI in presence of 5-FC after 48 hrs by checker board assay; assay type: functional, organism-based
[12] = Effect on cell wall integrity in Cryptococcus neoformans H99 assessed as increase in HXL1 activation ratio at 4 ug/ml after 2 hrs by immunoblot analysis (reference value: 1); assay type: functional; details: dose 4 µg/ml
[13] = test system: Trichophyton mentagrophytes; assay: Fungicidal activity against Trichophyton mentagrophytes KCCM60449 at 4 times after 2 hrs by time-kill kinetics assay; assay type: functional, organism-based
[14] = Effect on cell wall integrity in Cryptococcus neoformans H99 assessed as activation of Mpk1 by measuring increase in Mpk1 phosphorylation ratio at 8 ug/ml after 30 mins by immunoblot analysis (reference value: 1); assay type: functional; details: dose 8 µg/ml, 0.5 h
Nakaseomyces glabratus [15] = assay: Antifungal activity against Candida glabrata BG2 assessed as reduction in fungal growth incubated for 48 hrs by CLSI based broth microdilution method; assay type: functional
[16] = Oral bioavailability in Sprague-Dawley rat at 10 mg/kg; assay type: ADME, organism-based; details: in vivo
[Candida] auris = Synergistic antifungal activity against Candida auris B8841 assessed as FICI in presence of AmB after 48 hrs by checker board assay; assay type: functional, organism-based; details: Candidozyma auris
Candida albicans [17] = assay: Antifungal activity against Candida albicans ATCC SC5314 assessed as reduction in fungal growth incubated for 48 hrs by CLSI based broth microdilution method; assay type: functional
[18] = Cmax in Sprague-Dawley rat at 2 mg/kg, iv; assay type: ADME, organism-based; design: route intravenous, dose 2 mg/kg; details: in vivo
Cryptococcus neoformans [19] = assay: Induction of morphological changes in Cryptococcus neoformans H99 assessed as reduction in capsule thickness at 4 ug/ml incubated for 24 hrs by TEM analysis; assay type: functional, organism-based; details: dose 4.0 µg/ml
Cryptococcus neoformans [20] = assay: Synergistic antifungal activity against Cryptococcus neoformans H99 assessed as FICI in presence of AmB after 48 hrs by checker board assay; assay type: functional, organism-based
Nakaseomyces glabratus [21] = assay: Synergistic antifungal activity against Candida glabrata BG2 assessed as FICI in presence of AmB after 48 hrs by checker board assay; assay type: functional, organism-based
HaCaT = assay: Cytotoxicity against human HaCaT cells upto 12.5 uM incubated for 24 hrs; assay type: cell-based
Aspergillus fumigatus [22] = assay: Synergistic antifungal activity against Aspergillus fumigatus AF293 assessed as FICI in presence of AmB after 48 hrs by checker board assay; assay type: functional, organism-based
Cryptococcus neoformans [23] = assay: Fungicidal activity against Cryptococcus neoformans H99 at 8 times of MIC after 4 hrs by time-kill kinetics assay; assay type: functional, organism-based
Trichophyton rubrum = assay: Fungicidal activity against Trichophyton rubrum KCCM60450 at 2 times MIC after 8 hrs by time-kill kinetics assay; assay type: functional, organism-based
[24] = test system: Trichophyton mentagrophytes; assay: Fungicidal activity against Trichophyton mentagrophytes KCCM60449 at 4 ug/ml by time-kill kinetics assay; assay type: functional, organism-based; details: dose 4.0 µg/ml
[25] = Toxicity in po dosed Sprague-Dawley rat assessed as lethal dose measured after 14 days; assay type: organism-based; details: in vivo, 336 h, time 14 day
[26] = Cmax in dog at 10 mg/kg, po; assay type: ADME, organism-based, Canis lupus familiaris; design: route oral, dose 10 mg/kg; details: in vivo
[27] = Stability in mouse liver microsomes assessed as parent compound remaining after 30 mins; assay type: ADME, Microsome; details: liver microsomes, read-out: Stability
CYP1A2 = target: T1, CYP1A2 (Homo sapiens, UniProt P05177); assay: Inhibition of CYP1A2 (unknown origin) relative to control; assay type: ADME
T1 sequence (P05177 whole entry): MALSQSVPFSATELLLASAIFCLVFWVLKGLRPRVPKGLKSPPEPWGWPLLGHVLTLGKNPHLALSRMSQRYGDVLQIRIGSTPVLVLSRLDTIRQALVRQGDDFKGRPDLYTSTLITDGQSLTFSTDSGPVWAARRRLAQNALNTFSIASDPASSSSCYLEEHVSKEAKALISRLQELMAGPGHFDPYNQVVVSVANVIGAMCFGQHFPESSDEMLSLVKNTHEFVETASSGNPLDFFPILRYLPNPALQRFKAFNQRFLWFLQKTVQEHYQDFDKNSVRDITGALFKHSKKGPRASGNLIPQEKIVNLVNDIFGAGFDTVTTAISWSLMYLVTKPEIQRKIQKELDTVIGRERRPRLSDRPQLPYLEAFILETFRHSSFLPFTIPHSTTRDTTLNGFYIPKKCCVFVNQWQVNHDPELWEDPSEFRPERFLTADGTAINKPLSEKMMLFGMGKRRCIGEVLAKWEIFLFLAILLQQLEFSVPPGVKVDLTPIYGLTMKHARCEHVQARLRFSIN

[28] = Stability in rat hepatocytes assessed as parent compound remaining incubated for 60 mins; assay type: ADME, cell-based, Hepatocyte; details: read-out: Stability
Candida albicans [29] = assay: Induction of drug resistant in Candida albicans ATCC SC5314 assessed as increase in compound IC50 at 8 to 12 times MIC; assay type: functional, organism-based

Chain of Cytochrome P450 2D6 (P10635 whole entry): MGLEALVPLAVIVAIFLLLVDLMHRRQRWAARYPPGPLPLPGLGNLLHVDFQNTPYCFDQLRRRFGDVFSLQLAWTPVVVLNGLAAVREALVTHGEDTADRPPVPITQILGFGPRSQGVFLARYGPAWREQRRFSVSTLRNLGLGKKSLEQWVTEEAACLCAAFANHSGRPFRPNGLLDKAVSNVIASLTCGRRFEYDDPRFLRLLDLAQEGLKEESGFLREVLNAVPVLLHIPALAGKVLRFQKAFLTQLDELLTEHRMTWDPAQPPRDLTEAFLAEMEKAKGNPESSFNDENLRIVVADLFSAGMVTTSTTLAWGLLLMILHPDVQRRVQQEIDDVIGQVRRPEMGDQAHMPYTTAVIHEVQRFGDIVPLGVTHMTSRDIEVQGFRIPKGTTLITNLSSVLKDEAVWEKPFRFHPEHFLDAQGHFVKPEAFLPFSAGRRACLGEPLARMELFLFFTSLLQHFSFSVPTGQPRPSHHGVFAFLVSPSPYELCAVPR

## CCCC(N)C(=O)NCCc1ccc(-c2ccc(Cl)c(Cl)c2)cc1.Cl (racemic)
[1]
  Cmax: 296 ng/mL
Nakaseomyces glabratus [2]
  Activity: inactive
Aspergillus fumigatus [3]
  MIC: 4 µg/mL
[4]
  Cmax: 1080 ng/mL
[5]
  remaining at 0.5 h: 72.3%
[6]
  AUC(0-t): 7150 ng·h/mL
[7]
  remaining at 1 h: 61.1%
Candida albicans [8]
  Activity: Active
Nakaseomyces glabratus [9]
  Activity: Active
Cryptococcus neoformans [10]
  Activity: Active
Cytochrome P450 2D6
  inhibition (INH): 88.7%
Cryptococcus neoformans [11]
  Activity: Active
[12]
  Ratio: 1.12
[13]
  Activity: Active
[14]
  Ratio: 2.67
Nakaseomyces glabratus [15]
  MIC: 4 µg/mL
[16]
  bioavailability: 39.8%
[Candida] auris
  Activity: Active
Candida albicans [17]
  MIC: 2 µg/mL
[18]
  Cmax: 190 ng/mL
Cryptococcus neoformans [19]
  Activity: Active
Cryptococcus neoformans [20]
  Activity: Active
Nakaseomyces glabratus [21]
  Activity: Active
HaCaT
  Activity: Non-Toxic
Aspergillus fumigatus [22]
  Activity: Active
Cryptococcus neoformans [23]
  Activity: Active
Trichophyton rubrum
  Activity: Active
[24]
  Activity: Active
[25]
  Activity: 2000 mg/kg
[26]
  Cmax: 4390 ng/mL
[27]
  remaining at 0.5 h: 78.2%
CYP1A2
  inhibition at 10 µM: 81.1%
[28]
  remaining at 1 h: 36.2%
Candida albicans [29]
  Activity: inactive
